Assay results: ChEMBL document CHEMBL4689842, “EUbOPEN Chemogenomics Library wave 1” (2021)

How the values were obtained:
HEK-293T = test: Incucyte cell viability with HEK293T; format: toxicity, cell-based; conditions: human, 10 µM, compound concentration 10 uM
Fibroblast = test: Incucyte cell viability with human fibroblast; format: toxicity, cell-based; conditions: 10 µM, compound concentration 10 uM
[1] = 0 h, replicate number 2, timepoint 0 hours
[2] = 6 h, replicate number 1, timepoint 6 hours
[3] = 12 h, replicate number 1, timepoint 12 hours
[4] = 18 h, replicate number 1, timepoint 18 hours
[5] = 24 h, replicate number 1, timepoint 24 hours
[6] = 0 h, replicate number 1, timepoint 0 hours
[7] = 6 h, replicate number 2, timepoint 6 hours
[8] = 12 h, replicate number 2, timepoint 12 hours
[9] = 18 h, replicate number 2, timepoint 18 hours
[10] = 24 h, replicate number 2, timepoint 24 hours
Also: filed as whole numbers so only -1 and 0 and 1 occur.

Structure (SMILES): Cc1ccc2c(c1)c1c(n2CCc2ccc(C)nc2)CCN(C)C1 [LATREPIRDINE]
- Growth Rate (HEK-293T; [1]): 0
- Growth Rate (HEK-293T; [2]): 0
- Growth Rate (HEK-293T; [3]): 0
- Growth Rate (HEK-293T; [4]): 0
- Growth Rate (HEK-293T; [5]): 0
- Growth Rate (Fibroblast; [6]): 0
- Growth Rate (Fibroblast; [2]): 1
- Growth Rate (Fibroblast; [7]): 0
- Growth Rate (Fibroblast; [3]): 0
- Growth Rate (Fibroblast; [4]): 0
- Growth Rate (Fibroblast; [5]): 0

Structure (SMILES): CC(C)CC(=O)Nc1[nH]nc2c1CN(C(=O)C1CCN(C)CC1)C2(C)C [PHA-793887]
- Growth Rate (HEK-293T; [6]): 1
- Growth Rate (HEK-293T; [2]): 0
- Growth Rate (HEK-293T; [3]): 0
- Growth Rate (HEK-293T; [4]): 0
- Growth Rate (HEK-293T; [5]): 0
- Growth Rate (Fibroblast; [6]): 0
- Growth Rate (Fibroblast; [2]): 0
- Growth Rate (Fibroblast; [3]): 0
- Growth Rate (Fibroblast; [4]): 0
- Growth Rate (Fibroblast; [5]): 0

Structure (SMILES): CCCSc1nc(N[C@@H]2C[C@H]2c2ccc(F)c(F)c2)c2nnn([C@@H]3C[C@H](OCCO)[C@@H](O)[C@H]3O)c2n1 [TICAGRELOR]
- Growth Rate (HEK-293T; [1]): 0
- Growth Rate (HEK-293T; [2]): 0
- Growth Rate (HEK-293T; [3]): 0
- Growth Rate (HEK-293T; [4]): 0
- Growth Rate (HEK-293T; [5]): 0
- Growth Rate (Fibroblast; [6]): 0
- Growth Rate (Fibroblast; [2]): 0
- Growth Rate (Fibroblast; [3]): 0
- Growth Rate (Fibroblast; [4]): 0
- Growth Rate (Fibroblast; [5]): 0

Structure (SMILES): CN1CCN(Cc2ccc(Nc3ncc(Cl)c(Nc4ccccc4S(=O)(=O)N(C)C)n3)cc2)CC1 [DUBERMATINIB]
- Growth Rate (HEK-293T; [6]): 0
- Growth Rate (HEK-293T; [1]): 1
- Growth Rate (HEK-293T; [7]): 0
- Growth Rate (HEK-293T; [3]): 1
- Growth Rate (HEK-293T; [8]): 0
- Growth Rate (HEK-293T; [4]): 0
- Growth Rate (HEK-293T; [5]): 0
- Growth Rate (Fibroblast; [6]): 0
- Growth Rate (Fibroblast; [3]): 1
- Growth Rate (Fibroblast; [8]): 0
- Growth Rate (Fibroblast; [4]): 0
- Growth Rate (Fibroblast; [5]): 0

Structure (SMILES): CC(C)OC(=O)N1CCC(Oc2ncnc3c2cnn3-c2ccc(S(C)(=O)=O)cc2F)CC1
- Growth Rate (HEK-293T; [1]): 1
- Growth Rate (HEK-293T; [2]): 0
- Growth Rate (HEK-293T; [3]): 0
- Growth Rate (HEK-293T; [4]): 0
- Growth Rate (HEK-293T; [5]): 0
- Growth Rate (Fibroblast; [6]): 0
- Growth Rate (Fibroblast; [2]): 1
- Growth Rate (Fibroblast; [7]): 0
- Growth Rate (Fibroblast; [3]): 1
- Growth Rate (Fibroblast; [8]): 0
- Growth Rate (Fibroblast; [4]): 1
- Growth Rate (Fibroblast; [9]): 0
- Growth Rate (Fibroblast; [5]): 0

Structure (SMILES): O=C(c1cc2c(cc1F)OC(c1ccc(F)cc1)(c1ccc(Cl)cc1Cl)O2)N1CCOCC1 (centres undefined)
- Growth Rate (HEK-293T; [6]): 0
- Growth Rate (HEK-293T; [2]): 0
- Growth Rate (HEK-293T; [3]): 0
- Growth Rate (HEK-293T; [4]): 0
- Growth Rate (HEK-293T; [5]): 0
- Growth Rate (Fibroblast; [6]): 0
- Growth Rate (Fibroblast; [8]): 0
- Growth Rate (Fibroblast; [4]): 1
- Growth Rate (Fibroblast; [9]): 0
- Growth Rate (Fibroblast; [5]): 1
- Growth Rate (Fibroblast; [10]): 0

Structure (SMILES): C=CC(=O)Nc1cccc(Oc2nc(Nc3ccc(N4CCN(C)CC4)cc3OC)ncc2Cl)c1
- Growth Rate (HEK-293T; [2]): 0
- Growth Rate (HEK-293T; [3]): 0
- Growth Rate (HEK-293T; [4]): 0
- Growth Rate (HEK-293T; [5]): 0
- Growth Rate (Fibroblast; [2]): 0
- Growth Rate (Fibroblast; [3]): 0
- Growth Rate (Fibroblast; [4]): 0
- Growth Rate (Fibroblast; [5]): 0

Structure (SMILES): O=c1cc(N2CCOCC2)oc2c(-c3cccc4c3sc3ccccc34)cccc12
- Growth Rate (HEK-293T; [2]): 0
- Growth Rate (HEK-293T; [3]): 0
- Growth Rate (HEK-293T; [4]): 0
- Growth Rate (HEK-293T; [5]): 0
- Growth Rate (Fibroblast; [1]): 0
- Growth Rate (Fibroblast; [2]): 0
- Growth Rate (Fibroblast; [3]): 0
- Growth Rate (Fibroblast; [4]): 0
- Growth Rate (Fibroblast; [9]): 1
- Growth Rate (Fibroblast; [5]): 0
- Growth Rate (Fibroblast; [10]): 1

Structure (SMILES): CNCc1ccccc1-c1csc([C@@H](C)Nc2nc(C)nc3cc(OC)c(OC)cc23)c1 [BAY-293]
- Growth Rate (HEK-293T; [2]): 0
- Growth Rate (HEK-293T; [3]): 0
- Growth Rate (HEK-293T; [4]): 0
- Growth Rate (HEK-293T; [5]): 0
- Growth Rate (Fibroblast; [2]): 0
- Growth Rate (Fibroblast; [3]): 0
- Growth Rate (Fibroblast; [4]): 0
- Growth Rate (Fibroblast; [5]): 0

Structure (SMILES): COc1ccc(-c2ccc3ncc4c(c3c2)n(-c2ccc(N3CCNCC3)c(C(F)(F)F)c2)c(=O)n4C)cn1.O=C(O)/C=C\C(=O)O [BGT-226]
- Growth Rate (HEK-293T; [2]): 0
- Growth Rate (HEK-293T; [3]): 0
- Growth Rate (HEK-293T; [4]): 0
- Growth Rate (HEK-293T; [5]): 0
- Growth Rate (Fibroblast; [6]): 0
- Growth Rate (Fibroblast; [2]): 0
- Growth Rate (Fibroblast; [3]): 0
- Growth Rate (Fibroblast; [4]): 0
- Growth Rate (Fibroblast; [5]): 0

Structure (SMILES): COc1cc2ncn(-c3cc(OCc4ccccc4C(F)(F)F)c(C(N)=O)s3)c2cc1OC [GW843682X]
- Growth Rate (HEK-293T; [6]): 0
- Growth Rate (HEK-293T; [3]): 0
- Growth Rate (HEK-293T; [4]): 0
- Growth Rate (HEK-293T; [5]): 0
- Growth Rate (Fibroblast; [6]): 0
- Growth Rate (Fibroblast; [2]): 1
- Growth Rate (Fibroblast; [3]): 0
- Growth Rate (Fibroblast; [4]): 0
- Growth Rate (Fibroblast; [5]): 0

Structure (SMILES): CC(C)Oc1ccccc1C(=O)Nc1ccccc1C(=O)Nc1cccc(S(=O)(=O)C(F)(F)F)c1
- Growth Rate (HEK-293T; [6]): 0
- Growth Rate (HEK-293T; [2]): 0
- Growth Rate (HEK-293T; [3]): 0
- Growth Rate (HEK-293T; [4]): 0
- Growth Rate (HEK-293T; [5]): 0
- Growth Rate (Fibroblast; [6]): 0
- Growth Rate (Fibroblast; [5]): 1

Structure (SMILES): COc1cc(Nc2nccc(-c3cnn4nc(OC)ccc34)n2)cc(C(F)(F)F)c1
- Growth Rate (HEK-293T; [2]): 0
- Growth Rate (HEK-293T; [3]): 0
- Growth Rate (HEK-293T; [4]): 0
- Growth Rate (HEK-293T; [5]): 0
- Growth Rate (Fibroblast; [2]): 0
- Growth Rate (Fibroblast; [3]): 0
- Growth Rate (Fibroblast; [4]): 0
- Growth Rate (Fibroblast; [5]): 0

Structure (SMILES): O=c1[nH]c2ccccc2n1C1CCN(Cc2ccc(-c3[nH]c4cc5ncnc5cc4nc3-c3ccccc3)cc2)CC1
- Growth Rate (HEK-293T; [1]): 1
- Growth Rate (HEK-293T; [2]): 0
- Growth Rate (HEK-293T; [3]): 0
- Growth Rate (HEK-293T; [4]): 0
- Growth Rate (HEK-293T; [5]): 0
- Growth Rate (Fibroblast; [1]): 0
- Growth Rate (Fibroblast; [3]): 1
- Growth Rate (Fibroblast; [4]): 0
- Growth Rate (Fibroblast; [5]): 0

Structure (SMILES): C=CC(=O)Nc1cccc(Sc2nc(Nc3ccc(N4CCN(C)CC4)cc3)ncc2Cl)c1
- Growth Rate (HEK-293T; [2]): 0
- Growth Rate (HEK-293T; [3]): 0
- Growth Rate (HEK-293T; [4]): 0
- Growth Rate (HEK-293T; [5]): 0
- Growth Rate (Fibroblast; [2]): 0
- Growth Rate (Fibroblast; [3]): 0
- Growth Rate (Fibroblast; [4]): 0
- Growth Rate (Fibroblast; [5]): 0
